Laboratory results taken from patent US20250368627A1, “PYRAZOLESULFONAMIDES AS ANTITUMOR AGENTS” (Peloton Therapeutics, Inc., a fully owned subsidiary of …, priority 2019, published 2025).

Tests used:
[1] = target: T1, DDB1DB/DCAF15 and RBM39 R1R2 complex (Homo sapiens, UniProt Q14498+Q66K64); assay: DCAF15 RBM39 Complex Formation Assay (FRET); format: binding; conditions: FRET ratio Em 665/Em 615, incubated overnight at 4° C.
T1 construct: Amino acids 150 to 331 of RBM39 were cloned into pGEX4T3; GST (from vector pGEX4T3); TEV cleavage site (N); made in house; host or cells: DDB1DB/His-DCAF15: baculovirus/Sf9 co-expression; RBM39 R1R2: E. coli (pGEX4T3)
Source text: LANCE Eu-W1024 Anti-6×His and SureLight Allophycocyanin-anti-FLAG antibodies were purchased from Perkin Elmer. Human DDB1DB and His-tagged DCAF15 were co-expressed in baculovirus/sf9 system. While full length DDB1 contains three 7-bladed propellers termed A, B, and C, DDB1DB has only propeller A (amino acids 1 to 395) and C (amino acids 709-1140). The His-tagged DCAF15 contains six histidine residues directly preceding the DCAF15 sequence without any linker. An RBM39 fragment containing RRM1 and RRM2 was expressed in E. coli. Amino acids 150 to 331 of RBM39 were cloned into pGEX4T3 with an N-terminal TEV cleavage site and a C-terminal FLAG tag.
A compound of the present disclosure in DMSO (2 μL) was transferred to a 384-well assay plate. Compound was added in 14 points, 3-fold serial dilution (1 μM to 0.6 pico molar) in DMSO. […] FRET assay buffer (25 mM HEPES, pH 7.5, 100 mM NaCl, […], 0.5 mM TCEP, 0.005% Tween-20, 0.2 nM Eu—W1024 Anti-6×His, 50 nM SureLight Allophycocyanin-anti-FLAG, 20 nM DDB1DB/DCAF15, 50 nM RBM39 R1R2) was added and the resulting solution was incubated overnight at 4° C. The plate was placed in a plate reader (Spark 10) with excitation at 1=340 nm and emissions monitored at 1=665 nm and 1=615 nm, and the FRET ratio (Em 665/Em 615) was determined. Low signal controls containing no compound and high signal controls containing 10 mM indisulam were measured for each plate.
EC50 values were calculated using Dotmatics template equation for 4-parameter fit. Results are expressed as % formation using the following equation: […]

[2] = tested on: HCT116 human colorectal carcinoma cells; assay: CellTiter-Glo Luminescent Cell Viability Assay; format: cell-based; conditions: HCT-116, 72 h, 3 days
Experimental: HCT116 human colorectal carcinoma cells were used in these experiments. HCT116 cells were obtained from ATCC. CellTiter-Glo® Luminescent Cell Viability Assay Reagent was obtained from Promega.
About 3,000 cells were seeded into 96-well plate with […] of media (DMEM supplemented with 10% FBS, 100 units penicillin, and […] streptomycin per mL) the day before the experiment. For compound treatment, the master plate was prepared as follows: 100× compound stocks were prepared in a 96-well plate by 1 to 3 serial dilutions of 0.5 mM DMSO stocks. Each master plate contained serial dilution of 8 compounds, including the control compound E7820. […] of 100× compound stock was added to each well of the assay plate to give final concentrations of […]. Each concentration was tested in triplicate. After 3 days, cell viability was determined using CellTiter-Glo Luminescent Cell Viability Assay Reagent following the manufacturer's recommended protocol. Briefly, […] of CellTiter-Glo reagent was added to each well of the assay plate and the contents were mixed for 3 minutes at 600 rpm on a shaker (Thermomixer R). The plate was immediately placed in a plate reader (Synergy 2) and the luminescence signal (0.5 second per well integration time) was determined. IC50 values were calculated using Dotmatics software.

T1 sequence (Q66K64 whole entry, the tested form may be a part): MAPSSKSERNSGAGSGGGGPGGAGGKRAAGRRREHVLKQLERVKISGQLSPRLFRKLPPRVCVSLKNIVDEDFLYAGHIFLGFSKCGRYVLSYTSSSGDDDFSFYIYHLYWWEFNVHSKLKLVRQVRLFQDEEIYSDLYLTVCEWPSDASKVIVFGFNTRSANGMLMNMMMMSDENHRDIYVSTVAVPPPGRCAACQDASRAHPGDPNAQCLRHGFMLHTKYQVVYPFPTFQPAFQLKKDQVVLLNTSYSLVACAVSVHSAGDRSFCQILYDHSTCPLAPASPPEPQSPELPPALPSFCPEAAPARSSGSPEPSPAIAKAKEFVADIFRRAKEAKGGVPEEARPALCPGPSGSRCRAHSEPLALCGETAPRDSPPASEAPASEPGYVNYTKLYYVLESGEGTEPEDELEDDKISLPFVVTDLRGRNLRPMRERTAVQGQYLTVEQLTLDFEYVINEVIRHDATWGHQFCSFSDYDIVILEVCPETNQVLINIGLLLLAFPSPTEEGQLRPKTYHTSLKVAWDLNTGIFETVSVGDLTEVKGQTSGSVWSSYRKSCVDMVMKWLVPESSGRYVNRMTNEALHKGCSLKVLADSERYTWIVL
T1 sequence (Q14498 150-331): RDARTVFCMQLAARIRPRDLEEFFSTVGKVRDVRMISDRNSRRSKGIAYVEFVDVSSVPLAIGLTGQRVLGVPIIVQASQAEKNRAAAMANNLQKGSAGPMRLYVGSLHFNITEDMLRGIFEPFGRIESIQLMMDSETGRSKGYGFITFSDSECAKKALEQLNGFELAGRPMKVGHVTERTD
T1 sequence (Q16531 with tags, fused parts or gaps DEL396-708 partner): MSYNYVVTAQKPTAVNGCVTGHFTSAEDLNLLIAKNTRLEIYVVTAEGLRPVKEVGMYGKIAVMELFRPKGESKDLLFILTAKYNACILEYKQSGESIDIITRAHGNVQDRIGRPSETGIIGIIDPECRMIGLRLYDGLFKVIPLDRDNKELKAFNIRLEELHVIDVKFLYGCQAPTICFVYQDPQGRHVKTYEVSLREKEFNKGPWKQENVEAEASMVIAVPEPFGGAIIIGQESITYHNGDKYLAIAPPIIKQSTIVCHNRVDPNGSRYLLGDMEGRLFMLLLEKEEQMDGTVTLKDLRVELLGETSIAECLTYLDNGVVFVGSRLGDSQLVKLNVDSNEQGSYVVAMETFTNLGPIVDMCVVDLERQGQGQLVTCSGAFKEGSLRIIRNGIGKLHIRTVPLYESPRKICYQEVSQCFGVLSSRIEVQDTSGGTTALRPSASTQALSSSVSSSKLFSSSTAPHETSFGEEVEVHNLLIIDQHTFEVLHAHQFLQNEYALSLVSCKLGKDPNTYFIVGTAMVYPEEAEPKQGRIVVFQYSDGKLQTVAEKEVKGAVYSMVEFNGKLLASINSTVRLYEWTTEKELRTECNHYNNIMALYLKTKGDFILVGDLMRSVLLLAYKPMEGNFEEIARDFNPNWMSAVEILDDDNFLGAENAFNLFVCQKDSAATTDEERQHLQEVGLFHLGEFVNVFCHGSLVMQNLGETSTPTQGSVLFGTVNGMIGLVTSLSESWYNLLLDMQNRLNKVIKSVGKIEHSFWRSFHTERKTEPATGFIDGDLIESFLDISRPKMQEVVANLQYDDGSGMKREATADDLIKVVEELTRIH

For `Cc1ccc(NS(=O)(=O)c2c[nH]nc2N)c2[nH]cc(C#N)c12` [Compound 295, 3-amino-N-(3-cyano-4-methyl-1H-indol-7-yl)-1H-pyrazole-4-sulfonamide], the IC50 [1] was < 250 nM and the EC50 [2] was 250 to 1000 nM.
With `CC(C)(O)Cn1cc(S(=O)(=O)Nc2ccc(F)c3c(C#N)c[nH]c23)c(F)n1` [Compound 206, N-(3-cyano-4-fluoro-1H-indol-7-yl)-3-fluoro-1-(2-hydroxy-2-methyl-propyl)pyrazole-4-sulfonamide] the IC50 [1] was < 250 nM and the EC50 [2] was > 1000 nM.
In the case of `CC(C)(CO)n1cc(S(=O)(=O)Nc2cccc3c(C#N)c[nH]c23)c(Cl)n1` [Compound 253, 3-chloro-N-(3-cyano-1H-indol-7-yl)-1-(2-hydroxy-1,1-dimethyl-ethyl)pyrazole-4-sulfonamide], the IC50 [1] is reported as < 250 nM and the EC50 [2] is reported as > 1000 nM.
`O=S(=O)(Nc1cccc2c(Cl)c[nH]c12)c1cnn(C2CC(O)C2)c1` (stereo not shown) [Compound 83, N-(3-chloro-1H-indol-7-yl)-1-(3-hydroxycyclobutyl)pyrazole-4-sulfonamide] was tested, and the IC50 [1] was < 250 nM and the EC50 [2] was 250 to 1000 nM.
With `Cc1ccc(NS(=O)(=O)c2cnn(C3COC3)c2)c2[nH]cc(C#N)c12` [Compound 64, N-(3-cyano-4-methyl-1H-indol-7-yl)-1-(oxetan-3-yl)pyrazole-4-sulfonamide] the IC50 [1] was < 250 nM and the EC50 [2] was < 250 nM.
For `Cc1ccc(NS(=O)(=O)c2cnn(CC(=O)N3CCCC3)c2)c2[nH]cc(C#N)c12` [Compound 142, N-(3-cyano-4-methyl-1H-indol-7-yl)-1-(2-oxo-2-pyrrolidin-1-yl-ethyl)pyrazole-4-sulfonamide], the IC50 [1] was < 250 nM and the EC50 [2] was > 1000 nM.
For `N#Cc1c[nH]c2c(NS(=O)(=O)c3cnn(C(F)F)c3N)cccc12` [Compound 292], the IC50 [1] was < 250 nM and the EC50 [2] was < 250 nM.
`Cc1ccc(NS(=O)(=O)c2cnn(CC(=O)O)c2)c2[nH]cc(C#N)c12` [Compound 134, 2-[4-[(3-cyano-4-methyl-1H-indol-7-yl)sulfamoyl]pyrazol-1-yl]acetic acid] was tested, and the IC50 [1] was < 250 nM and the EC50 [2] was > 1000 nM.
`N#CCCn1cc(S(=O)(=O)Nc2cccc3c(Cl)c[nH]c23)cn1` [Compound 59, N-(3-chloro-1H-indol-7-yl)-1-(2-cyanoethyl)pyrazole-4-sulfonamide] was tested, and the IC50 [1] was < 250 nM and the EC50 [2] was < 250 nM.
`Cc1ccc(NS(=O)(=O)c2cnn(CC(F)F)c2)c2[nH]cc(Cl)c12` [Compound 98, N-(3-chloro-4-methyl-1H-indol-7-yl)-1-(2,2-difluoroethyl)pyrazole-4-sulfonamide] was tested, and the IC50 [1] was < 250 nM and the EC50 [2] was < 250 nM.
For `Cc1ccc(NS(=O)(=O)c2cnn(CCC#N)c2)c2[nH]cc(C#N)c12` [Compound 77, 1-(2-Cyanoethyl)-N-(3-cyano-4-methyl-1H-indol-7-yl)pyrazole-4-sulfonamide], the IC50 [1] was < 250 nM and the EC50 [2] was < 250 nM.
With `N#Cc1c[nH]c2c(NS(=O)(=O)c3cnn(CCCO)c3)ccc(Cl)c12` [Compound 209, N-(4-chloro-3-cyano-1H-indol-7-yl)-1-(3-hydroxypropyl)-1H-pyrazole-4-sulfonamide] the IC50 [1] was < 250 nM and the EC50 [2] was 250 to 1000 nM.
With `Cn1cc(S(=O)(=O)Nc2ccc(C(F)(F)F)c3c(Cl)c[nH]c23)cn1` [Compound 97, N-[3-chloro-4-(trifluoromethyl)-1H-indol-7-yl]-1-methyl-pyrazole-4-sulfonamide] the IC50 [1] was < 250 nM and the EC50 [2] was > 1000 nM.
In the case of `CC(C)(O)Cn1cc(S(=O)(=O)Nc2ccc(Cl)c3c(C#N)c[nH]c23)c(F)n1` [Compound 204, N-(4-chloro-3-cyano-1H-indol-7-yl)-3-fluoro-1-(2-hydroxy-2-methyl-propyl)pyrazole-4-sulfonamide], the IC50 [1] is reported as < 250 nM and the EC50 [2] is reported as > 1000 nM.
With `O=S(=O)(Nc1cccc2c(Cl)c[nH]c12)c1cnn([C@H]2C[C@@H](O)C2)c1` [Compound 194, N-(3-chloro-1H-indol-7-yl)-1-(3-hydroxycyclobutyl)pyrazole-4-sulfonamide] the IC50 [1] was < 250 nM and the EC50 [2] was > 1000 nM.
`CCn1ncc(S(=O)(=O)Nc2ccc(C)c3c(C#N)c[nH]c23)c1F` [Compound 102, N-(3-Cyano-4-methyl-1H-indol-7-yl)-1-ethyl-5-fluoro-pyrazole-4-sulfonamide] was tested, and the IC50 [1] was < 250 nM and the EC50 [2] was < 250 nM.
In the case of `Cn1ncc(S(=O)(=O)Nc2ccc(Cl)c3c(C#N)c[nH]c23)c1Cl` [Compound 156, 5-chloro-N-(4-chloro-3-cyano-1H-indol-7-yl)-1-methyl-pyrazole-4-sulfonamide], the IC50 [1] is reported as < 250 nM and the EC50 [2] is reported as 250 to 1000 nM.
For `O=S(=O)(Nc1cccc2c(Cl)c[nH]c12)c1cnn(C2CCNCC2)c1` [Compound 41, N-(3-chloro-1H-indol-7-yl)-1-(4-piperidyl)pyrazole-4-sulfonamide], the IC50 [1] was 250 to 1000 nM and the EC50 [2] was > 1000 nM.
`O=S(=O)(Nc1cccc2c(Cl)c[nH]c12)c1cnn(-c2ccccc2)c1` [Compound 37, N-(3-chloro-1H-indol-7-yl)-1-phenyl-pyrazole-4-sulfonamide] was tested, and the IC50 [1] was < 250 nM and the EC50 [2] was > 1000 nM.
In the case of `COCCOCCOCCn1cc(S(=O)(=O)Nc2cccc3c(Cl)c[nH]c23)cn1` [Compound 24, N-(3-chloro-1H-indol-7-yl)-1-[2-[2-(2-methoxyethoxy)ethoxy)ethyl]pyrazole-4-sulfonamide], the IC50 [1] is reported as 250 to 1000 nM and the EC50 [2] is reported as > 1000 nM.
For `CC(C)(CO)n1cc(S(=O)(=O)Nc2ccc(Cl)c3c(C#N)c[nH]c23)c(Cl)n1` [Compound 260, 3-chloro-N-(4-chloro-3-cyano-1H-indol-7-yl)-1-(2-hydroxy-1,1-dimethyl-ethyl)pyrazole-4-sulfonamide], the IC50 [1] was < 250 nM and the EC50 [2] was > 1000 nM.
For `O=S(=O)(Nc1cccc2c(Cl)c[nH]c12)c1cnn(C2CCOCC2)c1` [Compound 20, N-(3-chloro-1H-indol-7-yl)-1-tetrahydropyran-4-yl-pyrazole-4-sulfonamide], the IC50 [1] was 250 to 1000 nM and the EC50 [2] was > 1000 nM.
With `CCn1cc(S(=O)(=O)Nc2ccc(C)c3c(C#N)c[nH]c23)c(N)n1` [Compound 290, 3-amino-N-(3-cyano-4-methyl-1H-indol-7-yl)-1-ethyl-pyrazole-4-sulfonamide] the IC50 [1] was < 250 nM and the EC50 [2] was < 250 nM.
In the case of `N#Cc1c[nH]c2c(NS(=O)(=O)c3cnn(CCCO)c3)ccc(F)c12` [Compound 211, N-(3-cyano-4-fluoro-1H-indol-7-yl)-1-(3-hydroxypropyl)pyrazole-4-sulfonamide], the IC50 [1] is reported as < 250 nM and the EC50 [2] is reported as 250 to 1000 nM.
In the case of `Cc1ccc(NS(=O)(=O)c2cn(CC(C)(C)O)nc2F)c2[nH]cc(C#N)c12` [Compound 205, N-(3-cyano-4-methyl-1H-indol-7-yl)-3-fluoro-1-(2-hydroxy-2-methyl-propyl)pyrazole-4-sulfonamide], the IC50 [1] is reported as < 250 nM and the EC50 [2] is reported as 250 to 1000 nM.
In the case of `N#Cc1c[nH]c2c(NS(=O)(=O)c3cnn(CC4(CO)CC4)c3)ccc(Cl)c12` [Compound 195, N-(4-chloro-3-cyano-1H-indol-7-yl)-1-[[1-(hydroxymethyl)cyclopropyl]methyl]pyrazole-4-sulfonamide], the IC50 [1] is reported as < 250 nM and the EC50 [2] is reported as 250 to 1000 nM.
In the case of `Cc1ccc(NS(=O)(=O)c2cnn(CC(C)(C)O)c2N)c2[nH]cc(C#N)c12` [Compound 283, 5-amino-N-(3-cyano-4-methyl-1H-indol-7-yl)-1-(2-hydroxy-2-methyl-propyl)pyrazole-4-sulfonamide], the IC50 [1] is reported as < 250 nM and the EC50 [2] is reported as 250 to 1000 nM.
In the case of `Cc1ccc(NS(=O)(=O)c2cnn(C(C)(C)C)c2)c2[nH]cc(C#N)c12` [Compound 94, 1-tert-butyl-N-(3-cyano-4-methyl-1H-indol-7-yl)pyrazole-4-sulfonamide], the IC50 [1] is reported as < 250 nM and the EC50 [2] is reported as < 250 nM.
`COC1CC(n2cc(S(=O)(=O)Nc3cccc4c(Cl)c[nH]c34)cn2)C1` (stereo not shown) [Compound 190, N-(3-chloro-1H-indol-7-yl)-1-(3-methoxycyclobutyl)pyrazole-4-sulfonamide] was tested, and the IC50 [1] was < 250 nM and the EC50 [2] was 250 to 1000 nM.
